The source of these data is ChEMBL document CHEMBL1177834, “ADMET rules of thumb II: A comparison of the effects of common substituents on a range of ADMET parameters” (Bioorg Med Chem, 2009).

As usually defined, the IC50 is the concentration that inhibits the measured activity by half. Read a low IC50 as inhibition by little substance.

The test has as its target Cytochrome P450 2C9 (Homo sapiens, UniProt P11712). Description: Inhibition of CYP2C9. Type of test: ADME.

Cytochrome P450 2C9, sequence (P11712 whole entry): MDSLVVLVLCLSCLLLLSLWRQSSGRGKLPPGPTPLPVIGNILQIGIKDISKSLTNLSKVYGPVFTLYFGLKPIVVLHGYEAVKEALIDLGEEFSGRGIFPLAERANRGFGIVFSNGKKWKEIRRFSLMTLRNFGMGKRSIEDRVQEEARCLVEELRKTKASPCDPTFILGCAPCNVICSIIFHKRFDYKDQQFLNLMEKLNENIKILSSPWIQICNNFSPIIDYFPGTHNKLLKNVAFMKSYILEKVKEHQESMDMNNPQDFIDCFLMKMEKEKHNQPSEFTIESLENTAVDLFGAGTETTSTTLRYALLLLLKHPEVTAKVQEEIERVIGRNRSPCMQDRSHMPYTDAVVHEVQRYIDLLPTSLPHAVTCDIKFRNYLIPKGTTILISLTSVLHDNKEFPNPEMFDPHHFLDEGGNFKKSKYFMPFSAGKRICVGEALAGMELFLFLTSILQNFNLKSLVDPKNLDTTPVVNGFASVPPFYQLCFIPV

Turning to `Cc1c(-c2ccccc2)nc2ccccc2c1C(=O)N[C@@H](c1cccc(F)c1)C1CC1`, inhibition was half-maximal at 7.94 µM (IC50).

`O=C(Cn1c(CCc2cccc(F)c2F)nc(=O)c2cccnc21)N(Cc1ccc(-c2ccc(C(F)(F)F)cc2)cc1)C1CCNCC1` showed a concentration for half-maximal inhibition (IC50) of 20 µM. This IC50 lies about 2.5-fold higher than the previous one.

In the case of `O=C(Cn1c(CCc2cccc(F)c2F)nc(=O)c2cccnc21)N(Cc1ccc(-c2ccc(C(F)(F)F)cc2)cc1)C1CCN(c2ccncn2)CC1`, the 50% inhibitory concentration (IC50) is 0.1 µM.

For the molecule `O=C(Cn1c(CCc2cccc(F)c2F)nc(=O)c2ccccc21)N(Cc1ccc(-c2ccc(C(F)(F)F)cc2)cc1)C1CCNCC1`, 15.8 µM corresponded to half-maximal inhibition (IC50).

`O=C(Cn1c(CCc2cccc(F)c2F)nc(=O)c2ccccc21)N(Cc1ccc(-c2ccc(C(F)(F)F)cc2)cc1)C1CCN(c2ccncn2)CC1`: the midpoint of inhibition, the IC50, lay at 0.0794 µM.

`O=C(N[C@@H](c1cccc(F)c1)C1CC1)c1c(Cc2cncnc2)c(-c2ccccc2)nc2ccccc12` had an IC50 of 10 µM.

`Cc1ccc2c(N3CCN(CCc4cccc(-c5cncnc5)c4)CC3)cccc2n1` showed an IC50 of 20 µM.

`Cc1ccc2c(N3CCN(CCc4ccc(F)cc4)CC3)cccc2n1` showed an IC50 of 31.6 µM.

In the case of `Cc1ccc2c(N3CCN(CCc4ccc(F)c(-c5cncnc5)c4)CC3)cccc2n1`, the half-inhibitory concentration (IC50) was 10 µM. This IC50 lies about 3.2-fold lower than the previous one.

In turn, `Cc1c(-c2cccs2)nc2ccccc2c1C(=O)N[C@@H](C)C1CCCCC1` showed an IC50 of 20 µM.

Turning to `C[C@H](NC(=O)c1c(Cc2cncnc2)c(-c2cccs2)nc2ccccc12)C1CCCCC1`, half-maximal inhibition (IC50) was put at 31.6 µM.

`Cc1ccc2c(N3CCN(CCc4ccccc4)CC3)cccc2n1` gave an IC50 of 39.8 µM.
